Experimental data from US20080004266A1, “Method for treating proliferative disorders associated with protooncogene products” (priority 2006, published 2008).
Where “and” joins values, the source holds several entries; their conditions need not be identical. Equal entries are not always repeated.

What was measured:
[1] = tested on: human chronic myelogenous leukemia tumor cell line K-562; assay: K-562 (Bcr-Abl) SCID mouse xenograft model; assay type: in vivo, human (xenograft in SCID mouse); details: 35 mg/kg i.v. 5 times per week, day 17
Method: Growth of this tumor cell line is dependent upon the expression of the Bcr-Abl fusion protein (C. Gambacarti-Passerini et al., Blood Cells Mol. Dis. 23:380-394, 1997). The cells were cultured in growth media prepared with Iscove's Modified Dulbecco's Media, 10% fetal bovine serum (FBS), 1% 100× Penicillin-Streptomycin, 1% 100× sodium pyruvate and 1% 100×MEM non-essential amino acids. FBS was obtained from ATCC and all other reagents were obtained from Invitrogen Corp. (Carlsbad, Calif., USA). Cells that had been cryopreserved in liquid nitrogen were rapidly thawed at 37° C. and transferred to a tissue culture flask containing growth media and then incubated at 37° C. in a 5% CO2 incubator. […]
Seven to eight week old, female CB17/Icr-Prkdc^scid/Crl (SCID) mice were obtained from Charles River Laboratories (Wilmington, Mass., USA). […] To implant K-562 tumor cells into SCID mice, cell cultures were centrifuged to pellet the cells, the supernatant was aspirated, the cell pellet was resuspended in 10 ml of growth media and the cell number determined using a hemocytometer. […]
Tumors were then permitted to develop in vivo until the majority reached 100-200 mm^3 in tumor volume, which typically required 1-2 weeks following implantation. […] Tumor volumes (V) were calculated by caliper measurement of the width (W), length (L) and thickness (T) of tumors using the following formula: V=0.5236×(L×W×T). […]

[2] = tested on: V600E mutant B-raf; assay: Degradation of B-raf in A375 melanoma cells (Western blot); assay type: cell-based, human; details: 18 hours, at 0.5 mM and 0.1 mM (so in the source)
Method: […] After 18 hours, the cells were lysed with 1× lysis buffer and a western blot was perform, and B-raf was detected with anti-B-raf antibody.

CC(C)c1cc(-c2nnc(O)n2-c2ccc3c(ccn3C)c2)c(O)cc1O [Compound 226, 3-(2,4-di-hydroxy-5-isopropyl-phenyl)-4-(1-methyl-indol-5-yl)-5-hydroxy-[1,2,4] triazole]
average bodyweight loss relative to the start of the study [1]: −12.4% (+/−1.4 SEM) | % T/C value ([1]; SCID mice, 6 doses, 35 mg/kg): 25% and 24.7% | degradation of V600E mutant B-raf [2]: induced degradation
